Laboratory results as given in the NIST ThermoML archive (doi:10.1021/je800224k).

Details: Liquid, Bellows volumetry

CCn1cc[n+](C)c1.F[B-](F)(F)F [1-ethyl-3-methylimidazolium tetrafluoroborate]
mass density [kg/m3]
Details | 392.9 K | 413 K | 432.9 K | 452.6 K | 472.4 K
10000 kPa | – | 1202 | 1189 | 1176 | 1163
20000 kPa | – | 1208 | 1195 | 1182 | 1169
30000 kPa | – | 1213 | 1200 | 1188 | 1175
40000 kPa | – | 1219 | 1206 | 1193 | 1181
50000 kPa | – | 1224 | 1211 | 1199 | 1187
60000 kPa | – | 1229 | 1216 | 1204 | 1192
70000 kPa | – | 1233 | 1221 | 1209 | 1197
80000 kPa | – | 1238 | 1226 | 1214 | 1202
90000 kPa | 1254 | 1242 | 1230 | 1219 | 1207
100000 kPa | 1259 | 1247 | 1235 | 1223 | 1212
110000 kPa | 1263 | 1251 | 1239 | 1228 | 1217
120000 kPa | 1267 | 1255 | 1243 | 1232 | 1221
130000 kPa | 1270 | 1259 | 1247 | 1236 | 1226
140000 kPa | 1274 | 1263 | 1252 | 1240 | 1230
150000 kPa | 1278 | 1267 | 1255 | 1245 | 1234
160000 kPa | 1282 | 1270 | 1259 | 1248 | 1238
170000 kPa | 1285 | 1274 | 1263 | 1252 | 1242
180000 kPa | 1289 | 1278 | 1267 | 1256 | 1246
190000 kPa | 1292 | 1281 | 1270 | 1260 | 1250
200000 kPa | 1295 | 1285 | 1274 | 1264 | 1253
